For orientation: melting point means the temperature of the solid-liquid transition. With `Cn1c(=O)c(-c2nnn(Cc3cccc(OCc4ccc5ccccc5n4)c3)n2)cc2cc(OCCCN3CCN(Cc4ccc5ccccc5n4)CC3)ccc21`, the melting point was 174 to 178 °C. `COc1cc2c(cc1OC)C(c1ccnc(-n3nc(-c4cccnc4)c4ccccc4c3=O)c1)=N[C@H](CO)C2` displayed a melting point of 235 to 238 °C. In the case of `CC(C)(C)OC(=O)CCc1ccnc(-c2nc(=O)c3ccc(Br)cc3s2)c1`, the melting point lay within 173 to 174 °C. Molecule `COc1ccc(N2Cc3cnc(Nc4ccccc4)nc3N([C@@H](C)CO)C2=O)c(F)c1` yielded a melting point of 188 to 198 °C. Next, `COc1nc(NC#N)nc(OC)n1`: greater than 300 °C; `COC(=O)c1cn(C(c2ccccc2)(c2ccccc2)c2ccccc2)c(I)n1`: 192 to 194 °C. On to `NC(=O)c1c(F)ccc(OCC=CC(=O)O)c1F`, for which the melting point lay within 187 to 188 °C. On to `CCCCCC(C)C(C)c1cc(O)c2c3c(c(=O)oc2c1)SCC3` (stereo unspecified), for which the melting point was 165 to 166 °C. With `CNC(=O)C(C)(C)n1cc(C)c(-c2ccccc2Cl)n1`, the melting point was in the range of 87 to 90.5 °C.

Turning to `COc1ccc(C(=O)C(=O)NC(C)C)s1`, the melting point lay within 72 to 73 °C. Then `CNC(=S)C1(c2cccc(C)n2)CCCCS1=O` (stereo unspecified), with 234 °C. `CCCCNC(=O)[C@@H](C[C@H](O)[C@H](CC1CCCCC1)NC(=O)[C@H](Cc1cscn1)NC(=O)[C@@H](CC(=O)N1CCOCC1)Cc1ccccc1)C(C)C` displayed a melting point of 161 to 163 °C. As to `CC1=C(N)C(C)C2CC(C)(CN3CCN(c4ccc(-n5ccnc5)cc4)CC3)OC2=C1C` (stereo unspecified), the melting point fell in the range of 165 to 167 °C.

`CN1CCN(c2cccc3c2C[C@H](NC(=O)c2ccc(C(=O)c4ccccc4)cc2)CC3)CC1` gave a melting point of 194 to 195 °C. Next, `O=C(Nc1cccnn1)N1CCN(c2nc(-c3cccc(F)c3F)cs2)CC1`: 215 to 216 °C; `CON=C(Cn1ncc(-c2ccc(S(C)(=O)=O)cc2)c(-c2ccc(F)cc2)c1=O)c1ccccc1`: 95 to 99 °C. Molecule `CC(=O)ON1C(C)(C)CC(OC(=O)c2ccccc2C(=O)OC2CC(C)(C)N(OC(C)=O)C(C)(C)C2)CC1(C)C` showed a melting point of 172 to 175 °C.

For `O=C(O)CCCc1nc(-c2cccnc2)c(-c2ccccc2)s1`, the melting point was 141 to 142 °C. Take `Cc1nc(NC(=O)c2ccccc2)sc1C(=O)NCc1cccc(F)c1`: the melting point lay in the range of 216 to 217 °C. In the case of `CCCCCCCC(=O)Oc1ccc(-c2ccc(C#N)cc2)cc1`, the melting point is 77.5 to 77.9 °C. On to `CC(C)(C)C1=NN(c2ccc(C(=O)O)cc2)C(c2ccc(Cl)c(Cl)c2)C1` (stereo unspecified), for which the melting point is 217 °C. Turning to `NS(=O)(=O)Oc1ccc(Cl)cc1`, the melting point lay in the range of 103 to 104 °C.

As for `NCCCNc1ncc2ncnc(Nc3ccc(F)c(Cl)c3)c2n1`, the melting point lay in the range of 177 to 179 °C.

Regarding `O=C(O)CO[C@@H]1CCCC[C@H]1NC(=S)Nc1ccccc1` (relative stereo), the melting point was in the range of 147 to 149 °C. Then `COC(=O)CCC#Cc1nc(Cl)ccc1N`, with 96 to 100 °C. `CN(C)CCOc1ccc2c(=O)c3ccc(OCCN(C)C)cc3oc2c1` gave a melting point of 87.5 to 89 °C. For `OCc1cc2ccnc(Cl)c2[nH]1`, the melting point was in the range of 185 to 187 °C.

With `CNC(=O)c1ccc(-c2nn(Cc3ccccc3)c3ccccc23)o1`, the melting point fell in the range of 182 to 183 °C. The molecule `CC1Cc2cc3c(cc2C(c2ccc([N+](=O)[O-])cc2)=NN1C(N)=S)OCO3` (stereo unspecified) displayed a melting point of 213 to 215 °C. Molecule `CCCCCCCCCCCCC(=O)CC#CCCCC(=O)O` had a melting point of 79 to 80.5 °C. Next, `COc1cc(C=CC(=O)Nc2cnc3c(C)cc(C)cc3c2-c2ccccc2Cl)ccc1OC(C)=O`: 174 to 175 °C; `N=C(NOC(=O)c1ccccc1)c1ccc(NC(=O)CCCC(=O)Nc2ccc(C(=N)NOC(=O)c3ccccc3)cc2)cc1`: 253 to 255 °C; `CCCn1nc2c(N)nc3c(c2c1CCCc1cc(C)no1)CCCC3`: 144 to 145 °C. Molecule `O=C1c2ccccc2C(=O)N1CC(=O)N1c2ccccc2N(Cc2ccc(Cl)cc2)C(=O)[C@H]2CCC[C@H]21` (relative stereo) returned a melting point of 205 to 206 °C. `CN(C)S(=O)(=O)Nc1cc(C(=O)c2ccccc2)ccc1N` gave a melting point of 147 to 149 °C. Take `Clc1ccc2nc(Cl)c3ncn(-c4ccccc4Cl)c3c2c1`: the melting point fell in the range of 194 to 200 °C. As to `CC(=O)OC1CCC2(C)C(=CCC3C2CCC2(C)C(n4cnc5ccccc54)=C(C=O)CC32)C1` (stereo unspecified), the melting point was in the range of 227 to 230 °C. As for `CCc1cc2c(Nc3nnc(C)s3)ncnc2s1`, the melting point lay in the range of 277 to 280 °C. As for `COc1ccc2c(c1)c1c3c(c(-c4ccccc4)cc1n2CCCCCCO)C(=O)NC3=O`, the melting point is 170 to 173 °C.

In turn, `CC(C)(C)C(NC(=O)c1ccc(I)cc1)NS(=O)(=O)Nc1cccnc1` (stereo unspecified) showed a melting point of 177 to 178 °C. `CCCc1nc(SC(F)F)c(C(=O)O)n1Cc1ccc(-c2ccccc2S(=O)(=O)NC(=O)NCc2cccc3ccccc23)cc1`: the melting point was 144 °C. Then `CCOc1nn(Cc2ccc(OCc3ccccc3)cc2)cc1CCC(=O)O`, with 115 to 116 °C; and `Cc1cn(-c2cc(NC(=O)c3cccc4cc(O)ccc34)cc(C(F)(F)F)c2)cn1`, with 169 to 172 °C; and `CC(=Cc1ccc(S)cc1)c1ccc2c(c1)C(C)(C)CCC2(C)C`, with 97 to 98 °C. The molecule `O=C1C2CCCC2=Nc2ccc(Cl)cc2N1Cc1ccccc1` (stereo unspecified) gave a melting point of 134 to 136 °C. As for `COC(=O)c1c(OC(C)=O)cc(CBr)cc1OC(C)=O`, the melting point lay in the range of 93 to 95 °C. `CCOc1cc(OCC(=O)O)cc2c1C(=O)N(COC(=O)c1c(Cl)cccc1Cl)S2(=O)=O` returned a melting point of 179 to 180 °C.

As to `COC(=O)C(=Cc1cc(OC)cc(OC)c1)c1ccc(Oc2ccc(C=O)cc2)cc1`, the melting point was in the range of 108 to 110 °C. On to `CCOc1ccc(Cc2cnc(N)nc2N)cc1OC`, for which the melting point fell in the range of 195 to 196 °C. Next, `COc1ccc2cc([C@@H]3CCN(C[C@H](O)COc4cccc5[nH]ccc45)[C@@H](C)C3)sc2c1`: 179 to 182 °C; `CCS(=O)(=O)CCNc1c(S(C)=O)c(C#N)nn1-c1c(Cl)cc(C(F)(F)F)cc1Cl` (stereo unspecified): 131 to 132 °C.

As to `COc1cc2oc(=O)c(CCO)c(C)c2cc1OC(C)C`, the melting point fell in the range of 110 to 112 °C. `N#Cc1[nH]c2ccc(Cl)cc2c1-c1c(F)cccc1F` showed a melting point of 199 to 200 °C.

In turn, `O=C(CCC(=O)N1CCC[C@H]1C(=O)O)c1ccc(Br)cc1` had a melting point of 138 to 139 °C.

In turn, `CS(=O)(=O)c1ccc(-c2cc(CO)nn2CC2CCCCC2)cc1` displayed a melting point of 104 °C. Consider `CC(C)(C)OC(=O)NCc1ccc(OCCC2Oc3ccccc3N(Cc3ccccc3Cl)C2=O)cc1` (stereo unspecified), for which the melting point was 121 to 123 °C.

On to `COC(=O)c1c(CNC(=O)c2ccc(C(=O)O)cc2)ccc2c1C(C)(C)CCC2(C)C`, for which the melting point lay in the range of 95 to 100 °C.

Take `OCc1ccnc(F)c1`: the melting point was 61 to 63 °C. Turning to `CCN(Cc1cc(Cl)ccc1OCC1CC1)c1ccc(C(N)=O)nn1`, the melting point lay within 177 to 178 °C. Then `COC(=O)NN=C(C)c1c[nH]c(-c2ccccc2)n1`, with 226 to 227 °C. `O=C(Nc1ccc(C(=O)N2CCO[C@H]3CCCC[C@@H]32)cc1)c1ccc(Cl)cc1Cl` (relative stereo) yielded a melting point of 227 to 230 °C. Next, `COc1ccc(C2=C(CC(C)N(CCO)C(C)C)C(=O)NCCC2)cc1` (stereo unspecified): 109 to 111 °C. In turn, `COC(=O)c1cc(C=NO)cc([N+](=O)[O-])c1` returned a melting point of 144 to 145 °C.

As for `CC(C(=S)c1ccnc(NC=O)c1)S(C)=O` (stereo unspecified), the melting point fell in the range of 123 to 125 °C. For the molecule `O=C(NC1CCCCC1)c1c(O)c2ccccc2[nH]c1=O`, the melting point is 221 °C.

Turning to `CC(C)C1NC(=O)CN1C(=O)CNC(=O)OCc1ccccc1` (stereo unspecified), the melting point lay in the range of 137 to 139 °C.

The molecule `CC1(C)OC(c2ccc(S(C)(=O)=O)cc2)=C(c2cccc3ccccc23)C1=O` had a melting point of 194 to 195 °C. Consider `Cc1cn(N=Cc2cccnc2)c(=O)[nH]1`, for which the melting point fell in the range of 200 to 202 °C. The molecule `COC(=O)CCC(C(=O)c1cccc(I)c1)c1ccccc1C` (racemic) registered a melting point of 106 to 108 °C. Then `CCOC(=O)C1=NN(C(=O)c2ccccc2I)C(C(=O)OCC)=NN1C(=O)c1ccccc1I`, with 186 to 187 °C; and `Nc1ccc2c(c1)C(=O)N(C1CCN(Cc3ccccc3)CC1)C2=O`, with 216 to 218 °C. `NC1(C2CCN(c3c(F)cc4c(=O)[nH]c(=O)n(C5CC5)c4c3OC(F)F)C2)CC1` (stereo unspecified) showed a melting point of 210 to 214 °C. Then `O=C(O)c1cc(OCc2ccccc2)nc(OCc2ccccc2)c1`, with 145 to 147 °C. Next, `CC1(C)CC(=O)CCc2ccc(Br)cc21`: 67 to 68 °C; `O=C(NC(Cc1c[nH]c2ccccc12)C(=O)CCc1cc(C(F)(F)F)cc(C(F)(F)F)c1)OCCc1ccccn1` (stereo unspecified): 133 to 135 °C; `CCOC(=O)COc1c(C)c(C(=O)c2ccc(C(=O)OC)cc2)n2ccccc12`: 84.5 °C. Then `O=C(CCCCN1CCCCC1)c1ccc2c(c1)Cc1cc(C(=O)CCCCN3CCCCC3)ccc1O2`, with 129 to 130 °C; and `CCCCCCOc1ccc2nc(-c3ccc(COC(CCCCCC)C(F)(F)F)cc3)sc2c1` (stereo unspecified), with 69.1 °C; and `O=C(Nc1cccnc1Cl)c1ccccc1F`, with 122 °C. The molecule `COc1ccc(OC)c2c1C[C@](O)(C1(C)OCCO1)CC2=O` displayed a melting point of 183 to 184 °C. `CC(C)c1cccc(C(C)C)c1OCC(N)=O` yielded a melting point of 136 to 138 °C. `O=C1NN=C(c2ccc(Cl)cc2)C2CC12` (stereo unspecified) gave a melting point of 199 to 200 °C. `CCS(=O)(=O)c1ccc(-c2cc(-c3nc(N)sc3-c3cccc(C)n3)ccn2)cc1` gave a melting point of 219 °C. Consider `CC(C)(C)c1nc2cc(N3CCN(S(C)(=O)=O)CC3)c(N=C=S)cc2s1`, for which the melting point fell in the range of 128 to 130 °C. In the case of `Cc1ccc(OC2SCC(O)C(O)C2O)cn1` (stereo unspecified), the melting point turned out to be 233 °C. With `Cc1cccnc1NN`, the melting point turned out to be 119 °C.
